Literature values, collected in patent USH1286H, “Method for treating peripheral atherosclerotic disease employing a cholesterol lowering drug, an ACE inhibitor, or a combination thereof” (E. R. Squibb & Sons, Inc., priority 1990, dated 1994).

Conditions: hypercholesterolemic patients; Costa et al., Am. J. Hyperten. 1988

SMILES: C[C@H](CS)C(=O)N1CCC[C@H]1C(=O)O [captopril, 1-[(2S)-3-mercapto-2-methylpropionyl]-L-proline]
- increase of HDL: 27%
- reduction of serum cholesterol: -18%
